According to article PMC11374718, “Unlocking opioid neuropeptide dynamics with genetically encoded biosensors” (Nature Neuroscience, 2024):
Like-named read-outs stand apart in the source and are kept apart here. Where no end group is shown, it is not given here.

How the values were obtained:
κLight1.3 [1] = molecular target: T1, κLight1.3 (Homo sapiens, UniProt P41145, INS261[…]/L259S/S262L/V164K); type: cell-based; settings: for EC50: read-out: κLight EC50
T1 construct: TlcnC (telencephalin) tag (C); PRC tag (C); ER2 (ER export motif FCYENEV) tag (C); expressed in transfected cells; dissociated hippocampal neurons (AAV9-hSyn); mouse brain (AAV9-hSyn)
Target sequence in this assay (P41145 with tags, fused parts or gaps V164K/L259S/INS261[withheld]/S262L): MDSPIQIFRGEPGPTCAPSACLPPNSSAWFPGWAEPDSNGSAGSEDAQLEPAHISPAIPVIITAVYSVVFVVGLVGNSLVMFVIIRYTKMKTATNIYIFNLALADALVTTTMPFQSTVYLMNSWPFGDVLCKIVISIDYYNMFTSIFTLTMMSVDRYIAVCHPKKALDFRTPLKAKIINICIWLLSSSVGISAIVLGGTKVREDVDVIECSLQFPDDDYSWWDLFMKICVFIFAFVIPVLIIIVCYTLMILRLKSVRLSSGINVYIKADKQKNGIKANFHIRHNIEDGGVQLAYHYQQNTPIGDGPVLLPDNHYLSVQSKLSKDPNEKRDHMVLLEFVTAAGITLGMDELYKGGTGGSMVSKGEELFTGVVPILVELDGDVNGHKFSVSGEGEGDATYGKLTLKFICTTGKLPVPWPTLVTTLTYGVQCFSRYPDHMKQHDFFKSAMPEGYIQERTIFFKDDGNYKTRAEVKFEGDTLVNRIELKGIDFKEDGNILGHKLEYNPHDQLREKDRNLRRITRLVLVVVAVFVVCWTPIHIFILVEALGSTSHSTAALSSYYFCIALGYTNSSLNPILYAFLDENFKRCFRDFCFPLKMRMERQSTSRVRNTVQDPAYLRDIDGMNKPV

µLight [2] = molecular target: µLight (Homo sapiens, UniProt P35372, V175Q); assay: biochemical; type: binding
κLight1.3a [3] = assay: in situ titration in dissociated hippocampal neurons expressing κLight1.3a; type: cell-based, human
δLight [4] = settings: read-out: δLight EC50 in neurons; dissociated hippocampal neurons
µLight [5] = molecular target: µLight (Homo sapiens, UniProt P35372, INS270[…]/V175Q); type: cell-based; settings: for EC50: read-out: μLight EC50
κLight1.3 [6] = molecular target: T1, κLight1.3; type: cell-based
Target sequence in this assay (P41145 with tags, fused parts or gaps V164K/L259S/INS261[withheld]/S262L): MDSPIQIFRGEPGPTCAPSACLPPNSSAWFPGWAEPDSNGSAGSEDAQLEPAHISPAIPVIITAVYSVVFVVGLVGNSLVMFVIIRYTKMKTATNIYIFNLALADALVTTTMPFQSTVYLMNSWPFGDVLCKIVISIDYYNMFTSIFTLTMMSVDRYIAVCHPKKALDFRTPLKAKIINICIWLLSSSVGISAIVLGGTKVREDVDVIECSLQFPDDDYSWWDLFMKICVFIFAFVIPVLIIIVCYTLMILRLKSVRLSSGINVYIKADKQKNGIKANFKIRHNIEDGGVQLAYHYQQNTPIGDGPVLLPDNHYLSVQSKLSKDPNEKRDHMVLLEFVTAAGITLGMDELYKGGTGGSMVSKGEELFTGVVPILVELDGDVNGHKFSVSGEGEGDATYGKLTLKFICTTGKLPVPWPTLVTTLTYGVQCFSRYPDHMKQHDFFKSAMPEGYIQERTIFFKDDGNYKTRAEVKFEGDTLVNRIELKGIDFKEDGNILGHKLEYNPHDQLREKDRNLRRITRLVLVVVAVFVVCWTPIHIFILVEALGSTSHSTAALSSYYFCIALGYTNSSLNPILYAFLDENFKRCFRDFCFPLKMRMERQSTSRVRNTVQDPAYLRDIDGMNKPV

κLight1.3a [7] = assay: two-photon imaging of κLight1.3a response to electrical stimulation in hippocampal CA3 slices; set-up: species or system mouse; settings: antagonist 100 µM, n = 3 slices
δLight [8] = molecular target: T2, δLight (Homo sapiens, UniProt P41143, G248L/INS249[…]/V154K); type: in vivo, mouse
T2 construct: PRC tag (C); ER2 (ER export motif) tag (C); expressed in transfected cells; dissociated hippocampal neurons (AAV9-hSyn); mouse brain (AAV9-hSyn)
From the text: (§1) We next determined if κLight and δLight can be activated by systemic administration of exogenous small-molecule drugs in vivo. We injected AAV9-hSyn encoding κLight1.3 or δLight, and κLight0 or δLight0 in the arcuate nucleus (ARC) of the hypothalamus, hippocampal CA3 region[43] and NAc[30], areas abundant in κOR and δOR. We next implanted fiber-optic ferrules above each injection site and recorded the fluorescence of κLight and δLight upon intraperitoneal (i.p.) injection of opioid receptor-selective ligands using fiber photometry (Fig. 4a and Extended Data Fig. 4h–j).
(§2) For fiber photometry studies, recordings were obtained throughout the entirety of drug injection, Pavlovian conditioning and head-fixed sessions as previously described. Before recording, an optic fiber was attached to the implanted fiber using a ferrule sleeve (Doric, ZR_2.5). Two LEDs were used to excite κLight1.3. […] Laser intensity for the 470-nm- and 405-nm-wavelength bands were measured at the tip of the optic fiber and adjusted to 50 μW before each day of recording. κLight1.3 fluorescence traveled through the same optic fiber before being bandpass filtered (525 ± 25 nm, Doric, FMC4), transduced by a femtowatt silicon photoreceiver (Newport, 2151) and recorded by a real-time processor (TDT, RZ5P). […]
Custom MATLAB scripts were developed for analyzing fiber photometry data in the context of mouse behavior. […] After baseline correction, the photometry trace was z-scored relative to the mean and standard deviation of the session. The post-processed fiber photometry signal was analyzed in the context of animal behavior during Pavlovian conditioning and operant task performance. […] Peak, mean and minimum fluorescence was determined during predetermined time windows for the injection period (0–5 min), reward period (5–20 s), release period (0–20 s) or artifact period (0–20 s) subtracted from peak, mean or minimum fluorescence values in a baseline window (−5 to 0 s). […]

δLight0 = molecular target: T3, δLight0 (Homo sapiens, UniProt P41143, D128N/G248L/INS249[…]/V154K); assay: in vivo fiber photometry of control sensor δLight0 upon i.p. drug injection; set-up: species or system mouse; settings: 5 mg/kg SNC162, n = 4 animals
T3 construct: ER2 tag (ER export motif FCYENEV) (C); PRC (proximal restriction and clustering) tag, after a GS linker (C); expressed in transfected cells; host or cells: mouse brain neurons (ARC; NAc) transduced in vivo with AAV-hSyn-δLight0
From the text: as §1
as §2, with “described.” for “described. Before recording, an optic fiber was attached to the implanted fiber using a ferrule sleeve (Doric, ZR_2.5). Two LEDs were used to excite κLight1.3.”
Custom MATLAB scripts were developed for analyzing fiber photometry data in the context of mouse behavior. […] After baseline correction, the photometry trace was z-scored relative to the mean and standard deviation of the session. […]

κLight = molecular target: T4, κLight (Homo sapiens, UniProt P41145, INS261[…]/L259S/S262L/V164K); assay: [3H]diprenorphine displacement binding, κLight cell membranes; settings: read-out: κLight IC50
T4 construct: TlcnC (telencephalin) tag (C); PRC tag (C); ER2 (ER export motif FCYENEV) tag (C); expressed in transfected cells; dissociated hippocampal neurons (AAV9-hSyn); mouse brain (AAV9-hSyn)

κLight1.3 [9] = molecular target: T1, κLight1.3; type: cell-based; settings: read-out: κLight1.3 EC50 in neurons; dissociated hippocampal neurons
δLight [10] = settings: neuron cultures; 100 μM ME then 1 mM naloxone

T2 sequence (P41143 with tags, fused parts or gaps, stated change not applied): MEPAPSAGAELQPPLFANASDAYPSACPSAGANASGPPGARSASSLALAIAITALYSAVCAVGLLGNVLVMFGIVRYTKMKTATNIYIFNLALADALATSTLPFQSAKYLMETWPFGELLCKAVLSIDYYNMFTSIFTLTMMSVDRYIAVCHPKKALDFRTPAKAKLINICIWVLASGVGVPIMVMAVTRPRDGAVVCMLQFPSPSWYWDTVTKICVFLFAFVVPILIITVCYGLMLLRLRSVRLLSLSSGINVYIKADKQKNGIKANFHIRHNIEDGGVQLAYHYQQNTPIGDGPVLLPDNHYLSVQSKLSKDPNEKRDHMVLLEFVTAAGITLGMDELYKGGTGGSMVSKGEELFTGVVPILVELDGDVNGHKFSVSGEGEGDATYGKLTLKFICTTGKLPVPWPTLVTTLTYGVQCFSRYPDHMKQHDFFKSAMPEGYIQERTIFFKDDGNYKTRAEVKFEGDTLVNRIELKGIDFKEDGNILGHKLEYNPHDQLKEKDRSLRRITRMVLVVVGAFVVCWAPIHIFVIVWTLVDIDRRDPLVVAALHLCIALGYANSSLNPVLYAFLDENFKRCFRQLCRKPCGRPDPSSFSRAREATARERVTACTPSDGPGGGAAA
Sequence of µLight (Homo sapiens, UniProt P35372, INS270[…]/V175Q) (P35372 with tags, fused parts or gaps V175Q/INS270[withheld]): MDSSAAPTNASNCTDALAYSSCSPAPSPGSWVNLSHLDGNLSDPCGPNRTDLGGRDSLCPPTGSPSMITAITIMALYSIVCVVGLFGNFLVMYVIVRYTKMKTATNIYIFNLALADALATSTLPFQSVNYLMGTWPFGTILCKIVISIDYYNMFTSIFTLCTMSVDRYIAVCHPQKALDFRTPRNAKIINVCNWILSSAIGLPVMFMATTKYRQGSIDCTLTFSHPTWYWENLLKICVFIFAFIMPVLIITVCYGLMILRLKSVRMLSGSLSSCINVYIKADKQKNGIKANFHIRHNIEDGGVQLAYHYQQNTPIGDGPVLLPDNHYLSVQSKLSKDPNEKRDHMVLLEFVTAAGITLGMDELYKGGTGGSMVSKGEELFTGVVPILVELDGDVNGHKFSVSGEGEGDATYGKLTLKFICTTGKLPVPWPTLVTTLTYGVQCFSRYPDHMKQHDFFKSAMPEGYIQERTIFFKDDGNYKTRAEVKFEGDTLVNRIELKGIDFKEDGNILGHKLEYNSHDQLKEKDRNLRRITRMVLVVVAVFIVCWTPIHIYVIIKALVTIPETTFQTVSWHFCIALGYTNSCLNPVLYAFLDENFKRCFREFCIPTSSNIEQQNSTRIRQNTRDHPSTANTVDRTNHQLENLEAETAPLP
Sequence of µLight (Homo sapiens, UniProt P35372, V175Q) (P35372 whole entry V175Q, looked up): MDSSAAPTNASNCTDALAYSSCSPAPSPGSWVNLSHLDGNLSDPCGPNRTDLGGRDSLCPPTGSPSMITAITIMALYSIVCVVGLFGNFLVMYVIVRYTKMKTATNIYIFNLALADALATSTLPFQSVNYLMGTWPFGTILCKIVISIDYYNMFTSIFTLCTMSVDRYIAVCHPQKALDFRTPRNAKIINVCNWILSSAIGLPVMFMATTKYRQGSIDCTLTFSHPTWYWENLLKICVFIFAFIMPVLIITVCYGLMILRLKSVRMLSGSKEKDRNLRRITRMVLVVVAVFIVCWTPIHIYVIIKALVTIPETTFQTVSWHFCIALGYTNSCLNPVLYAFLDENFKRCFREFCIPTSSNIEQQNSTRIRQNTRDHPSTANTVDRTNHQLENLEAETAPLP
T3 sequence (P41143 with tags, fused parts or gaps, stated change not applied): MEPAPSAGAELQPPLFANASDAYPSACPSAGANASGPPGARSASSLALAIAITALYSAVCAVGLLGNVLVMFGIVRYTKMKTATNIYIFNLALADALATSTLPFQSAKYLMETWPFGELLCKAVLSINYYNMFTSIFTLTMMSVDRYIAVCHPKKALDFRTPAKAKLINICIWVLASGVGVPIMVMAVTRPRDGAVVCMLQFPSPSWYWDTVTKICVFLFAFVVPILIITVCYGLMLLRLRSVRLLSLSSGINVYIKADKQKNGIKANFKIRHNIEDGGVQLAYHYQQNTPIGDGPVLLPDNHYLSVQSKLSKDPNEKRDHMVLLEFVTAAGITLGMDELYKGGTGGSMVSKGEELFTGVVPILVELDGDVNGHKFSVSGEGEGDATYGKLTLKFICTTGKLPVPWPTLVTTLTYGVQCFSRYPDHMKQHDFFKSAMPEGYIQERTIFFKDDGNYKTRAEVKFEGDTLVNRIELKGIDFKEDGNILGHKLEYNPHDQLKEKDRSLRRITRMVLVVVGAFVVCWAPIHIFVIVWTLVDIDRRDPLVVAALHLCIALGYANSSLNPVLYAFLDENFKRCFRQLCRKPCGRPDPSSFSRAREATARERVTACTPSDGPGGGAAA

Compound: CC(C)[C@H](NC(=O)[C@H](CC(=O)O)NC(=O)[C@H](Cc1ccccc1)NC(=O)[C@@H](C)NC(=O)[C@@H](N)Cc1ccc(O)cc1)C(=O)N[C@H](C(=O)NCC(N)=O)C(C)C [Deltorphin I]
- Normalized ΔF/F of κLight1.3 (κLight1.3 [1]): 0.26 ± 0.02

Compound: CC[C@H](C)[C@H](NC(=O)[C@H](C)NC(=O)[C@H](CC(N)=O)NC(=O)[C@H](CCCCN)NC(=O)[C@H](Cc1ccccc1)NC(=O)[C@H](CC(C)C)NC(=O)[C@@H](NC(=O)[C@@H](NC(=O)[C@H](CC(C)C)NC(=O)[C@@H]1CCCN1C(=O)[C@@H](NC(=O)[C@H](CCC(N)=O)NC(=O)[C@H](CO)NC(=O)[C@H](CCCCN)NC(=O)[C@H](CCC(=O)O)NC(=O)[C@H](CO)NC(=O)[C@@H](NC(=O)[C@H](CCSC)NC(=O)[C@H](Cc1ccccc1)NC(=O)CNC(=O)CNC(=O)[C@@H](N)Cc1ccc(O)cc1)[C@@H](C)O)[C@@H](C)O)C(C)C)[C@@H](C)O)C(=O)N[C@H](C(=O)N[C@@H](CCCCN)C(=O)N[C@@H](CC(N)=O)C(=O)N[C@@H](C)C(=O)N[C@@H](Cc1ccc(O)cc1)C(=O)N[C@@H](CCCCN)C(=O)N[C@@H](CCCCN)C(=O)NCC(=O)N[C@@H](CCC(=O)O)C(=O)O)[C@@H](C)CC [β-endorphin]
- Normalized ΔF/F of κLight1.3 (κLight1.3 [1]): 0.21 ± 0.01
- μLight % bound at 10 μM (µLight [2]): 46±3%
- EC50 (κLight1.3a [3]): 2710 nM
- EC50 (δLight [4]): 217 nM

Compound: CN(C(=O)/C=C/c1ccoc1)[C@@H]1CC[C@@]2(O)[C@H]3Cc4ccc(O)c5c4[C@@]2(CCN3CC2CC2)[C@H]1O5 [Nalfurafine, nalfurafine]
- Normalized ΔF/F of κLight1.3 (κLight1.3 [1]): 1.91 ± 0.09

Compound: YGGFLRRQF [DynB9, Dynorphin B9]
- Normalized ΔF/F of κLight1.3 (κLight1.3 [1]): 0.97 ± 0.03
- EC50 (κLight1.3 [1]): 10 nM
- EC50 (µLight [5]): 3760 nM

Compound: CC1(C)SSC(C)(C)[C@@H](NC(=O)[C@@H](N)Cc2ccc(O)cc2)C(=O)NCC(=O)N[C@@H](Cc2ccccc2)C(=O)N[C@H]1C(=O)O [DPDPE]
- Normalized ΔF/F of κLight1.3 (κLight1.3 [1]): 0.19 ± 0.04
- κLight ΔF/F max (%) (κLight1.3 [1]): 20.5±1.67%

Compound: COc1ccc2c3c1O[C@H]1C(=O)CC[C@@]4(O)[C@@H](C2)N(C)CC[C@]314 [Oxycodone, oxycodone]
- Normalized ΔF/F of κLight1.3 (κLight1.3 [1]): 0.16 ± 0.04
- µLight fluorescence response (µLight [5]): suppressed
- μLight ΔF/F max (%) (µLight [5]): -12.8±2.78%
- μLight % bound at 10 μM (µLight [2]): 32±3%

Compound: CC[C@H](C)[C@H](NC(=O)[C@H](CCCNC(=N)N)NC(=O)[C@H](CCCNC(=N)N)NC(=O)[C@H](CC(C)C)NC(=O)[C@H](Cc1ccccc1)NC(=O)CNC(=O)CNC(=O)[C@@H](N)Cc1ccc(O)cc1)C(=O)O [DynA8, dynorphin A1-8]
- Normalized ΔF/F of κLight1.3 (κLight1.3 [1]): 0.61 ± 0.04
- IC50 (µLight [2]): 48 ± 2 nM
- μLight % bound at 10 μM (µLight [2]): 58±2%

Compound: C[C@@H](NC(=O)[C@@H](N)Cc1ccc(O)cc1)C(=O)NCC(=O)N(C)[C@@H](Cc1ccccc1)C(=O)NCCO [DAMGO]
- Normalized ΔF/F of κLight1.3 (κLight1.3 [1]): 0.17 ± 0.03
- μLight ΔF/F max (%) (µLight [5]): 50.5±1.95%
- μLight % bound at 10 μM (µLight [2]): 79±3%

Compound: ICI 174864
- antagonism of κLight activation by DynA13 (κLight1.3 [6]): did not observe apparent antagonism
- peak ΔF/F of κLight1.3a to 15 electrical stimuli in presence of antagonist (κLight1.3a [7]): 6.44% ± 0.3

Compound: C=CCN1C[C@H](C)N([C@@H](c2ccccc2)c2ccc(C(=O)N(CC)CC)cc2)C[C@H]1C [SNC162]
- Normalized ΔF/F of κLight1.3 (κLight1.3 [1]): 0.009 ± 0.02
- κLight ΔF/F max (%) (κLight1.3 [1]): 12.2±2.39%
- EC50 (κLight1.3 [1]): 8280 nM
- μLight ΔF/F max (%) (µLight [5]): 2.9±1.69%
- EC50 (µLight [5]): 87.3 nM
- z-score peak of δLight (δLight [8]; ARC, SNC162 2.25 mg per kg): 2.4 ± 1.0
- z-score peak of δLight (δLight [8]; ARC, SNC162 5 mg per kg): 7.28 ± 2.4
- z-score peak of δLight (δLight [8]; NAc, SNC162 5 mg per kg): 7.45 ± 2.20
- peak z-score of δLight0 (δLight0; ARC (panel j)): 0.77 ± 0.5%
- peak z-score of δLight0 (δLight0; ARC as printed (panel l)): −0.61 ± 0.4%

Compound: CC(C)C[C@H](NC(=O)[C@H](Cc1ccccc1)NC(=O)CNC(=O)CNC(=O)[C@@H](N)Cc1ccc(O)cc1)C(=O)O [LE, Leu-enkephalin]
- Normalized ΔF/F of κLight1.3 (κLight1.3 [1]): 0.24 ± 0.02

Compound: YGGFLRKYP [β-neoendorphin]
- Normalized ΔF/F of κLight1.3 (κLight1.3 [1]): 0.26 ± 0.03
- EC50 (κLight1.3 [1]): 25.9 nM
- EC50 (µLight [5]): 6310 nM
- IC50 (κLight): 13 ± 2 nM

Compound: CC[C@H](C)[C@H](NC(=O)[C@H](CCCNC(=N)N)NC(=O)[C@H](CCCNC(=N)N)NC(=O)[C@H](CC(C)C)NC(=O)[C@H](Cc1ccccc1)NC(=O)CNC(=O)CNC(=O)[C@@H](N)Cc1ccc(O)cc1)C(=O)N[C@@H](CCCNC(=N)N)C(=O)N1CCC[C@H]1C(=O)N[C@@H](CCCCN)C(=O)N[C@@H](CC(C)C)C(=O)N[C@@H](CCCCN)C(=O)O [DynA13, dynorphin A1-13]
- EC50 (κLight1.3 [1]): 0.0898 nM
- EC50 (κLight1.3 [9]): 19.2 nM
- EC50 (κLight1.3a [3]): 35.4 nM
- EC50 (δLight [4]): 562 nM

Compound: CSCC[C@H](NC(=O)[C@H](Cc1ccccc1)NC(=O)CNC(=O)CNC(=O)[C@@H](N)Cc1ccc(O)cc1)C(=O)O [ME, met-enkephalin]
- Normalized ΔF/F of κLight1.3 (κLight1.3 [1]): 0.18 ± 0.005
- EC50 (κLight1.3 [1]): 6640 nM
- IC50 (κLight): 130 ± 3 nM
- EC50 (κLight1.3 [9]): 52100 nM
- EC50 (κLight1.3a [3]): 9650 nM

Compound: YGGFMRRVGRPEWWMDYQKRYGGFL [Peptide E]
- IC50 (κLight): 252 ± 2 nM
- μLight % bound at 10 μM (µLight [2]): 65±2%
- IC50 (µLight [2]; read-out: μLight IC50): 154 ± 2 nM

Compound: YGGFMRRVGRPEWWMDYQ [BAM18]
- Normalized ΔF/F of κLight1.3 (κLight1.3 [1]): 0.48 ± 0.03
- EC50 (κLight1.3 [1]): 35.6 nM
- EC50 (µLight [5]): 186 nM
- IC50 (κLight): 243 ± 2 nM
- IC50 (µLight [2]; read-out: μLight IC50): 14 ± 2 nM

Compound: Oc1ccc2c3c1O[C@H]1c4[nH]c5c(c4C[C@@]4(O)[C@@H](C2)N(CC2CC2)CC[C@]314)C[C@@]1(O)[C@H]2Cc3ccc(O)c4c3[C@@]1(CCN2CC1CC1)[C@H]5O4 [Nor-BNI, nor-binaltorphimine]
- pA2 at κLight1.3 (κLight1.3 [6]): 8.28
- peak ΔF/F of κLight1.3a to 15 electrical stimuli in presence of antagonist (κLight1.3a [7]): 1.57% ± 1.2

Compound: C=CCN1CC[C@]23c4c5ccc(O)c4O[C@H]2C(=O)CC[C@@]3(O)[C@H]1C5 [naloxone]
- δLight ΔF/F, + antagonist response (δLight [10]): 1.82 ± 2.4%
